The values below come from patent US11970436B2, “Pharmaceutical compositions comprising monoterpenes” (NEONC Technologies, Inc., priority 2010, dated 2024).

One series relates to cancer stem cells USC-04. Briefly: MTT cytotoxicity assay on cancer stem cells USC-04. The format is cell-based. The settings on record: Homo sapiens. From the text: (§1) Verapamil is used as an inhibitor of drug efflux pump proteins such as P-glycoprotein.
(In general: Tetrazolium dyes change colour on reduction, which living cells bring about.)

The subject of another series is glioma. In words: Boyden matrigel chamber invasion. It counts as cell-based.
Another series has as its system VEGF. In words: ELISA for VEGF secretion. The format is cell-based. The settings on record: U87 human glioma cells, POH for 48 hours. On the procedure: (§2) ELISA was performed after cells were treated with POH for 48 hours.
(§3) Pyrko et al. The unfolded protein response regulator GRP78/BiP as a novel target for increasing chemosensitivity in malignant gliomas. Cancer Res 67(20):9809-16, 2007. […] In addition, it may overcome the immunosuppressive functions of transforming growth factor beta-2 (TGFβ-2) secreted by glioma cells.
(ELISA stands for enzyme-linked immunosorbent assay.)

Another series has as its system interleukin 8 (IL8). Briefly: ELISA for IL-8 secretion. It counts as cell-based. The settings on record: U87 human glioma cells, POH for 48 hours. On the procedure: as §2, §3
Series [1] concerns U251 human glioma cells. In words: MTT cytotoxicity assay, POH combined with TMZ. It counts as cell-based. Conditions: POH and TMZ, FIG. 5C. On the procedure:
(§4) Cytotoxicity assays were carried out after cells were treated with POH in combination with temozolomide (TMZ), the standard alkylating agent used in the treatment of malignant gliomas. […] This effect was also seen in cell lines that were TMZ resistant.

Series [2] concerns cell lines that were TMZ resistant. Briefly: Cytotoxicity assay, POH combined with TMZ, resistant lines. The format is cell-based. Conditions: POH and TMZ. On the procedure:
as §4

Series [3] has as its system U251, LN229 and U87 human glioma cells. In words: MTT cytotoxicity assay, POH combined with DMC. It counts as cell-based. Conditions: MTT and colony formation assays, FIG. 5A. The source says:
(§5) Pyrko et al. HIV-1 protease inhibitors nelfinavir and atazanavir induce malignant glioma death by triggering endoplasmic reticulum stress. Cancer Res 67(22): 10920-10928, 2007.

In series [4] the test system is U251 human glioma cells. Briefly: MTT cytotoxicity assay, POH combined with Nelfinavir. The format is cell-based. Conditions: FIG. 5B.
Excerpt: as §5

The next series concerns glioma cells. Briefly: Apoptosis / cell killing by rolipram with or without POH. It counts as cell-based. The method, then:
When cells were treated with rolipram alone, apoptosis occurred only after 48 hours post the addition of high concentrations of rolipram (e.g., 1 mM). Synergistic cell killing by rolipram and POH occurred within a much shorter time period, i.e., 6 hours after the addition of the drugs. Chen et al. The type IV phosphodiesterase inhibitor rolipram induces expression of the cell cycle inhibitors p21 Cip 1 and p27Kip1, resulting in growth inhibition, increased differentiation, and subsequent apoptosis of malignant A-12 glioma cells. Cancer Biology & Therapy, Vol. 1:3, 268-276, 2003.

Series [5] has as its system brain endothelial cells (BECs). Briefly: Transepithelial electrical resistance (TEER), in vitro blood brain barrier model. It counts as cell-based. Conditions: 0.03% POH for 20 hours, compared to medium only, 0.01% and 0.02% POH. On the procedure: In these experiments, brain endothelial cells (BECs) were used as an in vitro model of blood brain barrier. The increase in TEER in each group over time corresponds to increased confluency of the cells in culture. TEER decreased when cells were treated by 0.03% POH for 20 hours compared to medium only, 0.01% POH treatment, and 0.02% POH treatment.
Transepithelial electrical resistance (TEER) assays were performed assessing the ability of POH to increase paracellular permeability (FIG. 7A). In these experiments, brain endothelial cells (BECs) were used as an in vitro blood brain barrier model. […] TEER decreased when cells were treated by 0.03% POH for 20 hours compared to medium only, 0.01% POH treatment, and 0.02% POH treatment. The increase in TEER in each group over time corresponds to increased confluency of the cells in culture.

Series [6] relates to glucose-regulated protein 78 (GRP78). In words: Western blot ER stress marker GRP78. Conditions: 20 hours. The format is cell-based, human. On the procedure: (§6) The treatments for different lanes of the Western blot are as follows: 1: No treatment; 2: 0.5 mM purified POH; 3: 1.5 mM purified POH; 4: 0.5 mM Sigma POH; 5: 1.5 mM Sigma POH; 6: 0.5 mM Wako POH; 7: 1.5 mM Wako POH; 8: Positive Control (DMC 40uM). Sigma POH is the POH purchased from Sigma Chemicals. Wako POH is the POH purchased from […]. Cells were treated with different agents or mock treated for 20 hours before being lysed.
(§7) Sigma POH is the POH purchased from Sigma Chemicals.
(§8) GRP78 is an anti-apoptotic protein the level of which is increased in response to stress. CHOP is a proapoptotic protein signaling for apoptosis. Pyrko et al. The unfolded protein response regulator GRP78/BiP as a novel target for increasing chemosensitivity in malignant gliomas. Cancer Research 67(20):9809-16, 2007.
(§9) U251 TMZ-sensitive and TMZ-resistant (U251/TR1, U251/TR2) cells were treated with Sigma POH (1.5 mM) or purified POH (1.5 mM) for 20 hours, then Western blot was performed.
(In western blotting, separated proteins are transferred to a membrane and probed.)

The subject of series [7] is CCAAT/enhancer binding protein (CHOP). In words: Western blot apoptosis marker CHOP. The format is cell-based, human. The settings on record: 20 hours. On the procedure:
as §6, §7, §8, §9

In series [8] the test system is glioblastoma cancer stem cell line USC-02. Briefly: MTT assay on glioblastoma cancer stem cells USC-02. The format is cell-based, human.
Excerpt: as §1

The test system of series [9] is glioma tumor cells (U251 cells). In words: MTT cytotoxicity assay, glioma cells versus normal brain cells. Conditions: FIG. 14. The format is cell-based, human.
Excerpt: as §1

Series [10] relates to normal stem cells mSVZ (mouse SVZ stem cells), brain endothelial cells (BECs) and astrocytes. Briefly: Comparison of POH IC50 values, normal cells. It counts as cell-based. Conditions: FIG. 18, normal cells.
Series [11] relates to glioblastoma cancer stem cells (USC04). In words: Sphere formation assay (SFA). Conditions: POH 0-1.5 mM for 6 days. It counts as cell-based, human. The method, then:
USC04 cells were incubated with varying concentrations of POH (0-1.5 mM) for 6 days.

Series [12] concerns H-Ras. Briefly: H-ras production in glioblastoma cancer stem cells. The format is cell-based, human. The settings on record: USC-02 and USC-04, POH for 24 hours. The method, then: Two glioblastoma cancer stem cell lines (USC-02, USC-04) were treated by POH for 24 hours. USC-02 and USC-04 are two independent primary cancer stem cell lines isolated from glioblastoma tissue from two different patients.

Series [13] deals with recurrent malignant gliomas. The settings on record: intranasal delivery, patients with recurrent malignant gliomas; cited from earlier work.
For series [14] the following is noted: oral, cited from earlier work.
The test system of a further series is K-Ras. Briefly: Western blot K-Ras expression. The format is cell-based, human. Conditions: U251 glioma cells, 24 hours. The method, then:
(§10) U251 glioma cells were treated with Sigma POH or purified POH for 24 hours, then Western blot was performed.

Series [15] concerns H-Ras. Briefly: Western blot H-Ras expression. The format is cell-based, human. Conditions: U251 glioma cells, 24 hours. The method, then:
as §10

Series [16] has as its system intracranial glioma model. Briefly: Intracranial glioma model in athymic nu/nu mice, survival. Conditions: mice treated with TMZ; untreated about four weeks. The format is in vivo. On the procedure: Male athymic nu/nu mice (6-8 weeks old) will be employed for this research. Rodent subcutaneous/intracranial glioma model can be established as follows. Six to eight week old athymic nu/nu mice will be anesthesized with intraperitoneal injections of ketamine (80 mg/kg) and xylazine (10 mg/kg). For the intracranial glioma model, the mice are placed into a stereotactic head frame (Harvard Apparatus), and local anesthetic (0.2 cc of 0.25% xylocaine) is injected into the right frontal scalp. A knife blade is used to make a small incision, and a drill bit is used to make a small opening in the right frontal skull at the level of the coronal suture. Glioma cells (1×10^5 cells/10 μl), for example, U-87 human glioma cells, will be loaded into a calibrated Hamilton syringe. The needle tip will be placed precisely into the right frontal lobe of the […], and cells will be slowly injected using a control push from the Hamilton syringe. After the injection is finished, the syringe and needle will be removed, and the wound closed.
Brains will be harvested, and tumor size determined. Survival curves will be constructed by following the mice until they develop neurological deficits. Our experience has been that survival is about four weeks after implantation for untreated mice, and up to 8 weeks for mice treated with TMZ.

For series [17], the system named is U251, U87, LN299 and A172 human glioma cells. The format is cell-based.
Series [18] relates to U251 human glioma cells (temozolomide-sensitive). It counts as cell-based. From the text:
(§11) U251/TR1 and U251/TR2 refer to two temozolomide-resistant U251 cell lines.

Series [19] concerns U251 temozolomide-resistant cells (U251/TR1 and U251/TR2). It counts as cell-based, human.
Excerpt: as §11

The subject of series [20] is U251 temozolomide-resistant cells (U251/TR1). Briefly: Colony formation assay on temozolomide-resistant U251. Conditions: FIG. 3C. The format is cell-based, human.
A further series has as its system B16-F1 melanoma cells. In words: Colony formation assay, POH plus radiation. It counts as cell-based. The settings on record: FIG. 4B. The method, then: (§12) Cells were treated with 325 μM or 650 μM POH prior to radiation at the doses of 2, 5 or 10 Grays (Gy). […] This was confirmed for another human glioma cell line (U251) and also for a melanoma cell line (B16-F1) (FIG. 4B).

The subject of series [21] is U251 human malignant glioma cells. In words: Colony formation assay, POH plus radiation. It counts as cell-based. Conditions: FIG. 4B. On the procedure:
as §12

A further series relates to human A172 glioma cells. Briefly: Colony formation assay, POH plus radiation. It counts as cell-based. The settings on record: 325 μM or 650 μM POH prior to radiation at 2, 5 or 10 Gy. On the procedure: as §12
Where [22] appears, read: U251 TMZ-sensitive and TMZ-resistant (U251/TR1, U251/TR2) cells, 1.5 mM.

Structures are written as SMILES. A value given as a limit tells only on which side of the number the result lay.

For orientation: EC50 means the concentration needed to bring the measured effect to its halfway point. Low readings indicate a more potent agent, high ones a less potent agent. Compound `Cc1ccc(C)c(-c2cc(C(F)(F)F)nn2-c2ccc(S(N)(=O)=O)cc2)c1` [DMC, dimethyl-celecoxib, reference compound] had an EC50 in the series with cancer stem cells USC-04 (FIG. 15B) of 78 µM.
`C=C(C)[C@@H]1CC=C(CO)CC1` [POH, perillyl alcohol]: in the series on glioma, the glioma invasion entry is reported as “inhibit glioma invasion”. The “production of VEGF by glioma cells” value in the series with VEGF is given as “inhibited production”. In addition, the “production of interleukin 8 (IL8) by glioma cells” value in the series with interleukin 8 (IL8) is given as “inhibited production”. Moreover, the “cytotoxicity in combination with temozolomide (TMZ)” value with U251 human glioma cells [1] is recorded as “at least additive”. The “cytotoxicity in combination with temozolomide (TMZ)” value in series [2] is on record as “also seen”. Further, the “cytotoxicity in combination with dimethyl-celecoxib (DMC)” value in series [3] is given as “at least additive”. The “cytotoxicity in combination with Nelfinavir (NFV)” value in the series on U251 human glioma cells [4] is reported as “at least additive”. In addition, in the series on glioma cells (rolipram and POH in combination), the “time after addition of the drugs at which synergistic cell killing occurred” value came to 6 h. Further, the TEER entry in [5] is listed as “decreased”. In series [6] (U251, U87 and A172 cells), the “level of GRP78” value was “up-regulated”. Further, the “level of CHOP” value in series [7] (U251, U87 and A172 cells) was “up-regulated”. The “POH IC50 compared among cell lines” value in [8] (FIG. 18, USC-02 cells) was “most sensitive”. Besides, the “sensitivity of USC-02 to POH relative to U251 cells or normal stem cells (mSVZ)” value in series [8] (MTT, 48 hrs) was “more sensitive”. Also, the EC50 in the series on cancer stem cells USC-04 (FIG. 15A) turned out to be 300 µM. Also, the “sensitivity of U251 cells to POH relative to brain endothelial cells (BECs) and astrocytes” value in series [9] is “more sensitive”. For the same compound, the “POH IC50 compared among cell lines” value in series [10] is given as “most resistant”. Also, in [11], the “number of spheres formed” value is given as “decreased the number of spheres”. In addition, the H-ras production entry in the series on H-Ras [12] is reported as “decreased H-ras production”. In [13], the “duration of disease remission in several patients” value is recorded as at most 3 years, the “patients achieving 6 month progression-free period” value is 50% and the “side effects from the treatment” value was “almost non-existent”. Besides, in [14], the anti-cancer efficacy result was “limited”. In series [14] (mainly gastrointestinal side effects), the tolerability entry is recorded as “generally poorly tolerated”.
In the case of `C=C(C)[C@@H]1CC=C(CO)CC1` [Sigma POH, (S)-perillyl alcohol], in the series on K-Ras, the K-Ras expression entry is “decreased”. In addition, the H-Ras expression result with H-Ras [15] is “decreased”.
Consider `Cn1nnc2c(C(N)=O)ncn2c1=O` [TMZ, temozolomide], for which the survival after implantation entry in [16] is given as “up to 8 weeks”.
`C=C(C)[C@@H]1CC=C(CO)CC1` [purified POH, (S)-perillyl alcohol]: the “cytotoxicity (MTT), cell killing” value is “efficacy” in [17], “effective in killing” in [18] and “effective in killing” in series [19]. In addition, in series [20], the colony formation entry was “efficacy”. The “cytotoxicity in combination with radiation” value (in the series on B16-F1 melanoma cells; in series [21]) was “synergistic cytotoxicity” throughout. In addition, the “cell killing in combination with radiation” value with human A172 glioma cells is “synergistically”. Further, the “expression of GRP-78” value in series [6] (setting [22]) is reported as “increased expression”. In addition, the “expression of CHOP” value in [7] (setting [22]) is listed as “increased expression”.
On to `COc1ccc(C2CNC(=O)C2)cc1OC1CCCC1` (stereo not shown) [rolipram, reference compound], for which the “time after addition at which apoptosis occurred” value in the series with glioma cells (rolipram alone, high concentrations (e.g., 1 mM)) is at least 48 h.
